Source: PubChem BioAssay AID1645871

Details: pampa; pH 5.0; 30.0 min; 50.0 µM

Question: For CCc1ccccc1-n1c(SCC(=O)Nc2ccc(C)cc2)nc2n[nH]c(C)c2c1=N, which Papp is on record?
Answer: Its Papp is over 1000 ×10⁻⁶ cm/s.

Question: With CCCCNC(=O)CN1CCN(c2ncc(NC(=O)c3ccc(Cl)cc3)cc2C(=O)O)CC1 as the molecule, how does the Papp read?
Answer: The Papp was 1.92 ×10⁻⁶ cm/s.

Question: With CCN(CC)C(=O)N1c2ccccc2C=Cc2ccccc21 as the molecule, how does the Papp read?
Answer: The Papp was over 1000 ×10⁻⁶ cm/s.

Question: With CCCN1C(CC(C)C)=NS(=O)(=O)c2cc(NC(=O)c3ccco3)ccc21 as the molecule, how does the Papp read?
Answer: The Papp was 239 ×10⁻⁶ cm/s.

Question: With Cc1ccc(C)c(CN2C(=O)c3ccccc3S(=O)c3ccc(C(=O)N4CCN(c5ccccc5F)CC4)cc32)c1 (centres undefined) as the molecule, how does the Papp read?
Answer: Its Papp is 932 ×10⁻⁶ cm/s.

Question: With Cc1ccccc1C(=O)NC1CCN(c2ccc3nnc(C4CC4)n3n2)CC1 as the molecule, how does the Papp read?
Answer: The Papp was 35 ×10⁻⁶ cm/s.

Question: With COc1ccccc1CN1CCNc2cc(Nc3ccccc3)ncc2C1 as the molecule, how does the Papp read?
Answer: The Papp was 22.3 ×10⁻⁶ cm/s.

Question: Which Papp does the source give for Cc1ccc(CN2CCOC[C@H]2c2ncc(-c3cccc(F)c3)[nH]2)cc1 here?
Answer: Its Papp is 995 ×10⁻⁶ cm/s.

Question: Which Papp does the source give for CCOC(=O)c1ccc(N2C(=O)c3n[nH]c(-c4cccs4)c3C2c2ccc(OCC)cc2)cc1 (centres undefined) here?
Answer: Its Papp is 448 ×10⁻⁶ cm/s.

Question: With NC1CCN(C(=O)C2CCCN(c3nc(-c4ccccc4)nc4c3CCC4)C2)CC1 (centres undefined) as the molecule, how does the Papp read?
Answer: Its Papp is 7.56 ×10⁻⁶ cm/s.

Question: Which Papp does the source give for COc1cc(C2c3c(oc4cc(C)c(C)cc4c3=O)C(=O)N2CCCN2CCOCC2)ccc1O (centres undefined) here?
Answer: The Papp was 25.3 ×10⁻⁶ cm/s.

Question: For COc1ccc(-c2ccc3ncc(Nc4ccncc4)n3n2)cc1OC, which Papp is on record?
Answer: Its Papp is 26.2 ×10⁻⁶ cm/s.

Question: With COc1ccc(-n2nc(C3CCCN(C(=O)C4CC4)C3)[nH]c2=O)cc1 (centres undefined) as the molecule, how does the Papp read?
Answer: The Papp was 109 ×10⁻⁶ cm/s.

Question: Which Papp does the source give for COc1ccc(OC)c(CNc2ncnc3onc(C)c23)c1 here?
Answer: The Papp was 250 ×10⁻⁶ cm/s.

Question: With CN1CCN(CCCN2c3ccccc3Sc3ccc(S(=O)(=O)N(C)C)cc32)CC1 as the molecule, how does the Papp read?
Answer: The Papp was 730 ×10⁻⁶ cm/s.

Question: With Cc1c(C)n(Cc2ccccc2)c2ccc(C(=O)OCCN(C)C)cc12 as the molecule, how does the Papp read?
Answer: Its Papp is over 1000 ×10⁻⁶ cm/s.

Question: For COc1cc(NC(=O)c2cc(-c3ccccc3O)no2)cc(OC)c1OC, which Papp is on record?
Answer: Its Papp is over 1000 ×10⁻⁶ cm/s.

Question: For CNc1nc2c(s1)C(c1ccc(Cl)cc1)CC(=O)N2 (centres undefined), which Papp is on record?
Answer: Its Papp is 204 ×10⁻⁶ cm/s.

Question: For O=C(c1ccc2ncccc2c1)N1CCc2c(nc3cc[nH]n3c2=O)C1, which Papp is on record?
Answer: The Papp was 5.6 ×10⁻⁶ cm/s.

Question: For CN1CCN(c2ccc(Nc3c4ccccc4nc4ccccc34)cc2)CC1, which Papp is on record?
Answer: Its Papp is 3.75 ×10⁻⁶ cm/s.

Question: Which Papp does the source give for COc1ccccc1Nc1ccnc(N2CCN(C(=O)c3ccccc3Cl)CC2)n1 here?
Answer: Its Papp is 35.8 ×10⁻⁶ cm/s.

Question: With CCOC(=O)c1[nH]c(C)c(CCC(=O)N2CCN(c3cc(C)ccc3C)CC2)c1C as the molecule, how does the Papp read?
Answer: Its Papp is over 1000 ×10⁻⁶ cm/s.

Question: With COc1cc([C@@H]2c3cc4c(cc3[C@H](O)[C@H]3COC(=O)[C@H]23)OCO4)cc(OC)c1OC as the molecule, how does the Papp read?
Answer: Its Papp is 262 ×10⁻⁶ cm/s.

Question: Which Papp does the source give for Cn1cnc(-c2nccc3c(=O)[nH]c(OCCCC(F)(F)F)nc23)c1 here?
Answer: Its Papp is 78.7 ×10⁻⁶ cm/s.

Question: For Cc1ccc(C(=O)Nc2ccc3oc(-c4cccnc4)nc3c2)cc1[N+](=O)[O-], which Papp is on record?
Answer: Its Papp is 693 ×10⁻⁶ cm/s.

Question: Which Papp does the source give for Cc1ccc(S(=O)(=O)Nc2nc3ccc(C)cc3nc2Nc2ccc3c(c2)OCO3)cc1 here?
Answer: The Papp was 334 ×10⁻⁶ cm/s.

Question: With Cc1nn2c(c1-c1ccccc1-c1ccccc1)N(CC1CC1)CCC2 as the molecule, how does the Papp read?
Answer: The Papp was over 1000 ×10⁻⁶ cm/s.

Question: Which Papp does the source give for CC[C@H](C)[C@@H]([C@@H](CC(=O)N1CCC[C@H]1[C@H](OC)[C@@H](C)C(=O)N[C@@H](Cc1ccccc1)c1nccs1)OC)N(C)C(=O)[C@@H](NC(=O)[C@H](C(C)C)N(C)C)C(C)C here?
Answer: Its Papp is 224 ×10⁻⁶ cm/s.

Question: With Cc1c(C(=O)NN2CCCCC2)nn(-c2ccc(Cl)cc2Cl)c1-c1ccc(Cl)cc1 as the molecule, how does the Papp read?
Answer: Its Papp is over 1000 ×10⁻⁶ cm/s.

Question: With COc1ccc(-n2nc(C3CCCN([S+](=O)([O-])c4cccc(C(F)(F)F)c4)C3)[nH]c2=O)cc1 (centres undefined) as the molecule, how does the Papp read?
Answer: The Papp was 564 ×10⁻⁶ cm/s.

Question: With COc1ccccc1NC(=O)C1=C(C)Nc2c(C(=O)Nc3cccc(C)c3)cnn2C1c1ccccc1Cl (centres undefined) as the molecule, how does the Papp read?
Answer: Its Papp is 156 ×10⁻⁶ cm/s.

Question: With O=c1[nH]c(N2CCOCC2)nc2c1CCN(Cc1ccc(Cl)cc1F)CC2 as the molecule, how does the Papp read?
Answer: The Papp was 71.2 ×10⁻⁶ cm/s.

Question: With CNc1oc(-c2cccc(Cl)c2Cl)nc1C#N as the molecule, how does the Papp read?
Answer: Its Papp is 589 ×10⁻⁶ cm/s.

Question: Which Papp does the source give for O=c1[nH]c(C2CCCN(CC3CCCCC3)C2)nn1-c1ccc(Cl)cc1 (centres undefined) here?
Answer: The Papp was over 1000 ×10⁻⁶ cm/s.

Question: With COc1ccc(CN2CCNc3cc(Nc4ccccc4)ncc3C2)cc1O as the molecule, how does the Papp read?
Answer: Its Papp is 3.07 ×10⁻⁶ cm/s.

Question: With CSc1nnc2c3ccccc3n(CCc3ccccc3)c2n1 as the molecule, how does the Papp read?
Answer: Its Papp is over 1000 ×10⁻⁶ cm/s.

Question: With O=C(Nc1cccc(OC(F)(F)F)c1)c1cc(-c2ccc[nH]2)n[nH]1 as the molecule, how does the Papp read?
Answer: Its Papp is 103 ×10⁻⁶ cm/s.

Question: With CCN(CC)CCOc1ccc(Cc2ccccc2)cc1 as the molecule, how does the Papp read?
Answer: Its Papp is 236 ×10⁻⁶ cm/s.

Question: For CCC(=O)NC(c1ccc(OC)cc1)c1cc(Cl)c2cccnc2c1O (centres undefined), which Papp is on record?
Answer: Its Papp is 5.75 ×10⁻⁶ cm/s.

Question: With O=C(c1ccccc1)N1CCC(c2nn(-c3ccc(F)cc3)c(=O)[nH]2)CC1 as the molecule, how does the Papp read?
Answer: Its Papp is 521 ×10⁻⁶ cm/s.

Question: Which Papp does the source give for CCCN1C(CC(C)C)=NS(=O)(=O)c2cc(NC(=O)c3cccs3)ccc21 here?
Answer: The Papp was 275 ×10⁻⁶ cm/s.

Question: With Cc1ccc(-c2c(CN3CCN(c4cccc(C(F)(F)F)c4)CC3)csc2C)cc1 as the molecule, how does the Papp read?
Answer: The Papp was 35 ×10⁻⁶ cm/s.

Question: With COc1cccc2c1CCCC2CCCN1CCN(C2CCCCC2)CC1 (centres undefined) as the molecule, how does the Papp read?
Answer: Its Papp is 777 ×10⁻⁶ cm/s.

Question: With CCNC(=O)c1coc(COc2ccc3c(c2)C(c2ccc(F)cc2)N(C(=O)CC(C)C)CC3)n1 (centres undefined) as the molecule, how does the Papp read?
Answer: The Papp was over 1000 ×10⁻⁶ cm/s.

Question: With COc1ccc(-n2nc(C3CCN(C(=O)Cc4ccc(F)cc4)CC3)[nH]c2=O)cc1 as the molecule, how does the Papp read?
Answer: Its Papp is 410 ×10⁻⁶ cm/s.

Question: For O=C(CCCN1CCC(n2c(=O)[nH]c3ccccc32)CC1)c1ccc(F)cc1, which Papp is on record?
Answer: The Papp was 98.2 ×10⁻⁶ cm/s.

Question: With CCOc1ccc(-c2nnc(SCC(=O)NCc3ccccc3Cl)o2)cc1 as the molecule, how does the Papp read?
Answer: Its Papp is 2 ×10⁻⁶ cm/s.

Question: With COc1cc(C(=O)NC2CCCc3c2[nH]c2ccccc32)cc(OC)c1OC (centres undefined) as the molecule, how does the Papp read?
Answer: Its Papp is 926 ×10⁻⁶ cm/s.

Question: For COc1ccc(C2c3c(oc4ccc(C)cc4c3=O)C(=O)N2CCCN2CCOCC2)cc1OC (centres undefined), which Papp is on record?
Answer: The Papp was 19.2 ×10⁻⁶ cm/s.

Question: Which Papp does the source give for Cc1ccc2nc(-c3cc(NC(=O)c4ccc5c(c4)OCCO5)ccc3Cl)oc2c1 here?
Answer: The Papp was 28.6 ×10⁻⁶ cm/s.

Question: With COc1ccc(CN2CCNc3cc(Nc4ccccc4)ncc3C2)cc1 as the molecule, how does the Papp read?
Answer: The Papp was 119 ×10⁻⁶ cm/s.

Question: For COc1c(O)cc2c(c1OC)-c1ccc(SC)c(=O)cc1C(NC(C)=O)CC2 (centres undefined), which Papp is on record?
Answer: Its Papp is 20.7 ×10⁻⁶ cm/s.

Question: Which Papp does the source give for Cn1c(=O)c2c(-c3ccc(Cl)cc3)n(CCc3ccccc3)cc2n(C)c1=O here?
Answer: The Papp was 762 ×10⁻⁶ cm/s.

Question: For CCOc1ccc(-c2cn3c(n2)sc2cc(C(=O)NCCCN(CC)CC)ccc23)cc1, which Papp is on record?
Answer: Its Papp is 114 ×10⁻⁶ cm/s.

Question: For Cc1cc(C)nc(NC(=S)N2CCN(Cc3ccc(C(F)(F)F)cc3)CC2)c1, which Papp is on record?
Answer: The Papp was over 1000 ×10⁻⁶ cm/s.

Question: Which Papp does the source give for Cc1onc(-c2ccc(F)cc2)c1COc1ccc(C(=O)N2CCS(=O)(=O)CC2)cn1 here?
Answer: Its Papp is 291 ×10⁻⁶ cm/s.

Question: For COc1cccc(CNC(=O)CCCn2nc(C)c3c(C)n(-c4ccc(C)cc4)nc3c2=O)c1OC, which Papp is on record?
Answer: Its Papp is 446 ×10⁻⁶ cm/s.

Question: With COc1ccc(-n2nc(C3CCCN(C(=O)c4ccccc4F)C3)[nH]c2=O)cc1 (centres undefined) as the molecule, how does the Papp read?
Answer: The Papp was 341 ×10⁻⁶ cm/s.

Question: Which Papp does the source give for CCC(Sc1nc2ccccc2c2nc(CCc3c(C)n[nH]c3C)nn12)C(=O)Nc1ccc(F)cc1 (centres undefined) here?
Answer: The Papp was 205 ×10⁻⁶ cm/s.

Question: With Cc1cnc(SCc2ccccn2)nc1C1CCCN(C(=O)c2scc3c2CCCC3)C1 (centres undefined) as the molecule, how does the Papp read?
Answer: Its Papp is over 1000 ×10⁻⁶ cm/s.

Question: With COc1cccc(CNCc2cccn2-c2nnc(N3CCN(c4ccccc4)CC3)s2)c1 as the molecule, how does the Papp read?
Answer: The Papp was 924 ×10⁻⁶ cm/s.

Question: With c1cc(-c2cc(-c3ccncc3)c3cncn3c2)c2[nH]ncc2c1 as the molecule, how does the Papp read?
Answer: Its Papp is 20.3 ×10⁻⁶ cm/s.

Question: With Cn1nnnc1Sc1ncnc2scc(-c3ccccc3F)c12 as the molecule, how does the Papp read?
Answer: Its Papp is 451 ×10⁻⁶ cm/s.

Question: For COc1cc(NC(=O)Cn2c(=O)oc3cc(S(=O)(=O)N4CCCCCC4)ccc32)cc(OC)c1, which Papp is on record?
Answer: The Papp was 372 ×10⁻⁶ cm/s.

Question: Which Papp does the source give for CN1CCN(Cc2ccc(NC(=O)Cc3ccc(Oc4cc(NC(=O)C5CC5)ncn4)cc3)cc2C(F)(F)F)CC1 here?
Answer: Its Papp is 19.3 ×10⁻⁶ cm/s.

Question: With Cc1cccc(-n2ncc3c2CCCC3NC(=O)c2c(F)ccc(F)c2F)c1C (centres undefined) as the molecule, how does the Papp read?
Answer: The Papp was 552 ×10⁻⁶ cm/s.

Question: For O=C1Nc2cc(Cl)ccc2Nc2cscc21, which Papp is on record?
Answer: Its Papp is 63.3 ×10⁻⁶ cm/s.

Question: Which Papp does the source give for Cc1ccc2oc3c(c(=O)c2c1)C(c1cccc(O)c1)N(CCCN1CCOCC1)C3=O (centres undefined) here?
Answer: Its Papp is 2.62 ×10⁻⁶ cm/s.

Question: With CCC(CC)c1cc([C@H]2CN3CC[C@H]2C[C@@H]3CNC(=O)Cc2cccs2)nc(-c2ccncc2)n1 as the molecule, how does the Papp read?
Answer: The Papp was 320 ×10⁻⁶ cm/s.

Question: Which Papp does the source give for O=C1CCc2cc(S(=O)(=O)Nc3ccc(F)c(Cl)c3)ccc2N1 here?
Answer: Its Papp is 663 ×10⁻⁶ cm/s.

Question: For CCCCc1ccc(NC(=O)c2ccc3c(c2)N(S(C)(=O)=O)CC3)cc1, which Papp is on record?
Answer: The Papp was 385 ×10⁻⁶ cm/s.

Question: For Cc1ccc(-n2nc3c(=O)n(CCCC(=O)NC(C)c4ccccc4)nc(C)c3c2C)cc1 (centres undefined), which Papp is on record?
Answer: The Papp was 562 ×10⁻⁶ cm/s.

Question: With COc1ccccc1C(=O)NC1CCCc2c1[nH]c1c(Cl)cccc21 (centres undefined) as the molecule, how does the Papp read?
Answer: The Papp was 607 ×10⁻⁶ cm/s.

Question: For CCc1nnc(NC(=O)c2nc(S(=O)(=O)Cc3ccc(C)cc3)ncc2Cl)s1, which Papp is on record?
Answer: The Papp was 711 ×10⁻⁶ cm/s.
